The source made the active and inactive calls. No cut-off for these calls is given here.
Assays:
[1] = target: T1, DNA topoisomerase II (Homo sapiens) (UniProt P11388+Q02880); test: Inhibition of DNA topoisomerase-2 (unknown origin) assessed as decrease in relaxation of supercoiled pRYG DNA at 12.5 to 100 uM after 50 mins by ethidium bromide staining-based agarose gel electrophoresis; format: protein assay
[2] = target: T1, DNA topoisomerase II (Homo sapiens); test: Binding affinity to p170 form of human DNA topoisomerase-2 at 50 nM in presence of UV irradiation after 60 mins by agarose gel electrophoresis; format: protein assay; conditions: tested as the 3H-labelled form
Escherichia coli = test: Binding affinity to Escherichia coli supercoiled pRYG DNA assessed as reduction of DNA topoisomerase-1-mediated relaxation of supercoiled DNA at 1 to 10 uM by agarose gel electrophoresis
[3] = target: T1, DNA topoisomerase II (Homo sapiens); test: Inhibition of DNA topoisomerase-2 (unknown origin) assessed as decrease in relaxation of supercoiled pRYG DNA at 1 to 10 uM after 50 mins by agarose gel electrophoresis; format: protein assay
[4] = Cytotoxicity against human DLD cells assessed as inhibition of cell proliferation after 48 hrs by CellTiter-Glo assay; format: functional

In the case of `COc1ccc(N(C)c2nc(Cl)nc3ccccc23)cc1`, the inhibition [1] is reported as “Active”.

For `Cc1nc(N(C)c2ccc(N=[N+]=[N-])cc2)c2ccccc2n1`, the Activity [2] was “Active”.

With `CC[n+]1c(-c2ccccc2)c2cc(N)ccc2c2ccc(N)cc21` the Activity (Escherichia coli) was “Active” and the inhibition [3] was “Active”.

For `COc1ccc(Nc2nc(Cl)nc3ccccc23)cc1`, the GI50 [4] was > 10 µM.

Reference: ChEMBL document CHEMBL3879884, “Compounds and therapeutical use thereof” (2005)
